Source: patent publication US20190134005A1 (BioMarin Pharmaceutical Inc., priority 2016, published 2019)

What follows are compounds tested against T1, human CGT (Homo sapiens, UniProt Q16880) (assay: CGT Enzyme Assay (Biological Example 2, RapidFire/MS/MS method with 0.01% Tween 80 added)). Conditions: enzymatic assay, CHO/CGT lysate.
T1 sequence (Q16880 21-541): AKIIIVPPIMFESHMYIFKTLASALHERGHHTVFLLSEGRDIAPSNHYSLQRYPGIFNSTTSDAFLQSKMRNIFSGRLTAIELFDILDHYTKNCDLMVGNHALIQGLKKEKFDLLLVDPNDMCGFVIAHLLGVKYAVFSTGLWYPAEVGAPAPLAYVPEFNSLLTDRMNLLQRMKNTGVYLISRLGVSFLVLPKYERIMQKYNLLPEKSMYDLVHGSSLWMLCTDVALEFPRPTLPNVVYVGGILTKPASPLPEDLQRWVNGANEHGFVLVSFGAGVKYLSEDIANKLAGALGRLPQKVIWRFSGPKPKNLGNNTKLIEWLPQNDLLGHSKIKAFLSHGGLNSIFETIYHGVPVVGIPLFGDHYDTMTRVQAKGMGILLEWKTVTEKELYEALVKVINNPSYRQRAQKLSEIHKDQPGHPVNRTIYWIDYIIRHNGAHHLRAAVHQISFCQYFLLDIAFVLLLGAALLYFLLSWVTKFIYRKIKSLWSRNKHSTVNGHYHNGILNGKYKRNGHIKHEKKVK
Assay type: biochemical
Experimental: Full-length human CGT cDNA was cloned into the BamH1/Xho1 site of pcDNA3.1 (+) mammalian expression vector (V90-20, Invitrogen, Carlsbad, Calif.) and the plasmid was transfected into Chinese hamster ovary (CHO) cells. Lysate was prepared using M-PER (Mammalian Protein Extraction Reagent, ThermoFisher Scientific, Grand Island, N.Y.) in the presence of a protease inhibitor cocktail (P8340, Sigma, Saint Louis, Mo.). Each 100 mm dish (100% confluent, approximately 1×10^7 cells) was lysed with 250 μL of M-PER containing protease inhibitors. Protein concentration was determined using a Pierce BCA protein assay kit (ThermoFisher Scientific). […] The final concentration of DMSO was 0.5% in both compound-treated and mock-treated samples. Each individual reaction was diluted with 80 μL of methanol:acetronitrile (1:3) containing 5 μM N-docdecanoyl-NBD-galactosylceramide (internal standard) to stop the reaction. 200 μL H2O:acetonitile (1:1) was added to precipitate the protein. After sufficient mixing, the plates were centrifuged at 2469 g for 38 minutes, 200 μl of supernatant was transferred to a LC-MS 96-deep well plate and a second spin was performed at 2469 g for 10 minutes. The final supernatant was injected in triplicate for RapidFire/MS/MS analysis.
The quantitative analysis of C6-NBD-dihydro-ceramide and C6-NBD-dihydro-galactosylceramide was performed on a Rapid Fire 360 high-throughput mass spectrometry system (Agilent Technologies, Palo Alto, Calif.) coupled with a API4000^+ triple quadrupole mass spectrometer (Applied Biosystems, Concord, Ontario, Canada). RapidFire software packages, including RapidFire Control panel, RapidFire UI and RapidFire Integrator (Agilent Technologies), were used to control the RapidFire instrument and to process data. Analyst 1.6.2 software packages (Applied Biosystems) were used to control the MS system and acquire MS data. 10 μL of sample was loaded on a micro-scale C4 solid-phase extraction (SPE) cartridge (Agilent Technologies) and salts were removed using water supplemented with 0.1% formic acid at the flow rate of 1.5 mL/min for 3 sec. C6-NBD-dihydro-ceramide and C6-NBD-dihydro-galactosylceramide were co-eluted into the mass spectrometer using acetonitrile containing 0.1% formic acid at the flow rate of 1.0 mL/min for 3 sec. The total cycle time of one injection was 8 secs. The MS/MS detection was performed in ESI negative mode.
The C6-NBD-dihydro-galactosylceramide reading was normalized first by dividing the peak area of C6-NBD-dihydro-galactosylceramide by the peak area of the internal standard, N-docdecanoyl-NBD-galactosylceramide.
In the case of `Cc1ccc(N2C(=O)N(c3ccc(C)cc3)C(C)(C)[C@H]2c2cccc(OC(F)(F)F)c2)cc1` [Example 21-1, (R)-4,4-dimethyl-1,3-di-p-tolyl-5-(3-(trifluoromethoxy)phenyl)imidazolidin-2-one], the IC50 is reported as 1 to 10 µM. In the case of `Cc1ccc(N2C(=O)N(c3ccc(C)cc3)C(C)(C)[C@@H]2c2cccc(OC(F)(F)F)c2)cc1` [Example 21-2, (S)-4,4-dimethyl-1,3-di-p-tolyl-5-(3-(trifluoromethoxy)phenyl)imidazolidin-2-one], the IC50 is reported as < 1 µM. With `CCC[C@]1(C)[C@@H](c2cccc(OC(F)(F)F)c2)N(c2ccc(Cl)cc2)C(=O)N1c1ccc(Cl)cc1` [Example 22-2, (4R,5R)-1,3-bis(4-chlorophenyl)-4-methyl-4-propyl-5-(3-(trifluoromethoxy)phenyl)imidazolidin-2-one] the IC50 was < 1 µM. With `CCC[C@]1(C)[C@H](c2cccc(OC(F)(F)F)c2)N(c2ccc(Cl)cc2)C(=O)N1c1ccc(Cl)cc1` [Example 22-3, (4R,5S)-1,3-bis(4-chlorophenyl)-4-methyl-4-propyl-5-(3-(trifluoromethoxy)phenyl)imidazolidin-2-one] the IC50 was < 1 µM. With `CCC[C@@]1(C)[C@H](c2cccc(OC(F)(F)F)c2)N(c2ccc(Cl)cc2)C(=O)N1c1ccc(Cl)cc1` [Example 22-5, (4S,5S)-1,3-bis(4-chlorophenyl)-4-methyl-4-propyl-5-(3-(trifluoromethoxy)phenyl)imidazolidin-2-one] the IC50 was 10 to 30 µM. `O=C1N(c2ccc(Cl)cc2)[C@H]2CCC[C@@]2(c2cccc(OC(F)F)c2)N1c1ccc(Cl)cc1` [Example 23-1, (3aS,6aS)-1,3-bis(4-chlorophenyl)-3a-(3-(difluoromethoxy)phenyl)hexahydrocyclopenta[d]imidazol-2(1H)-one] gave an IC50 of 10 to 30 µM. `O=C1N(c2ccc(Cl)cc2)[C@@H]2CCC[C@]2(c2cccc(OC(F)F)c2)N1c1ccc(Cl)cc1` [Example 23-2, (3aR,6aR)-1,3-bis(4-chlorophenyl)-3a-(3-(difluoromethoxy)phenyl)hexahydrocyclopenta[d]imidazol-2(1H)-one] gave an IC50 of 10 to 30 µM. In the case of `CC1(C)[C@@H](c2cccc(C#N)c2)N(c2ccc(C(F)(F)F)cc2)C(=O)N1c1ccc(C(F)(F)F)cc1` [Example 24-1, (R)-3-(5,5-dimethyl-2-oxo-1,3-bis(4-(trifluoromethyl)phenyl)imidazolidin-4-yl)benzonitrile], the IC50 is reported as < 1 µM. `CC1(C)[C@H](c2cccc(C#N)c2)N(c2ccc(C(F)(F)F)cc2)C(=O)N1c1ccc(C(F)(F)F)cc1` [Example 24-2, (S)-3-(5,5-dimethyl-2-oxo-1,3-bis(4-(trifluoromethyl)phenyl)imidazolidin-4-yl)benzonitrile] was tested, and the IC50 was 10 to 30 µM. `C[C@@]1(C(F)(F)F)[C@H](c2cccc(OC(F)(F)F)c2)N(c2ccc(Cl)cc2)C(=O)N1c1ccc(Cl)cc1` [Example 25-1] was tested, and the IC50 was < 1 µM. Compound `C[C@]1(C(F)(F)F)[C@@H](c2cccc(OC(F)(F)F)c2)N(c2ccc(Cl)cc2)C(=O)N1c1ccc(Cl)cc1` [Example 25-2] has an IC50 of 1 to 10 µM. Compound `CC1(C)[C@@H](c2cccc(OC(F)(F)F)c2)N(c2ccccc2)C(=O)N1c1ccccc1` [Example 26-1, (R)-4,4-dimethyl-1,3-diphenyl-5-(3-(trifluoromethoxy)phenyl)imidazolidin-2-one] has an IC50 of 10 to 30 µM. In the case of `CC1(C)[C@H](c2cccc(OC(F)(F)F)c2)N(c2ccccc2)C(=O)N1c1ccccc1` [Example 26-2, (S)-4,4-dimethyl-1,3-diphenyl-5-(3-(trifluoromethoxy)phenyl)imidazolidin-2-one], the IC50 is reported as 1 to 10 µM. `C[C@@]1(C(F)(F)F)[C@H](c2cccc(C#N)c2)N(c2ccc(Cl)cc2)C(=O)N1c1ccc(Cl)cc1` [Example 27-1, 3-((4S,5S)-1,3-bis(4-chlorophenyl)-5-methyl-2-oxo-5-(trifluoromethyl)imidazolidin-4-yl)benzonitrile] showed an IC50 of 10 to 30 µM. With `C[C@]1(C(F)(F)F)[C@@H](c2cccc(C#N)c2)N(c2ccc(Cl)cc2)C(=O)N1c1ccc(Cl)cc1` [Example 27-2, 3-((4R,5R)-1,3-bis(4-chlorophenyl)-5-methyl-2-oxo-5-(trifluoromethyl)imidazolidin-4-yl)benzonitrile] the IC50 was < 1 µM. For `CC1(C)[C@@H](c2cccc(OC(F)(F)F)c2)N(c2cccc(Cl)c2)C(=O)N1c1cccc(Cl)c1` [Example 28-1, (R)-1,3-bis(3-chlorophenyl)-4,4-dimethyl-5-(3-(trifluoromethoxy)phenyl)imidazolidin-2-one], the IC50 was 10 to 30 µM. In the case of `CC1(C)[C@H](c2cccc(OC(F)(F)F)c2)N(c2cccc(Cl)c2)C(=O)N1c1cccc(Cl)c1` [Example 28-2, (S)-1,3-bis(3-chlorophenyl)-4,4-dimethyl-5-(3-(trifluoromethoxy)phenyl)imidazolidin-2-one], the IC50 is reported as < 1 µM. Work on `N#Cc1cccc([C@H]2N(c3ccc(Cl)cc3)C(=O)N(c3ccc(Cl)cc3)C23COC3)c1` [Example 30-1, (R)-3-(5,7-bis(4-chlorophenyl)-6-oxo-2-oxa-5,7-diazaspiro[3.4]octan-8-yl)benzonitrile] yielded an IC50 of 10 to 30 µM. With `N#Cc1cccc([C@@H]2N(c3ccc(Cl)cc3)C(=O)N(c3ccc(Cl)cc3)C23COC3)c1` [Example 30-2, (S)-3-(5,7-bis(4-chlorophenyl)-6-oxo-2-oxa-5,7-diazaspiro[3.4]octan-8-yl)benzonitrile] the IC50 was < 1 µM. Work on `O=C1N(c2ccc(Cl)cc2)C2CCOC[C@]2(c2cccc(OC(F)(F)F)c2)N1c1ccc(Cl)cc1` (stereo partly drawn) [Example 31-1, (3aR)-1,3-bis(4-chlorophenyl)-3a-(3-(trifluoromethoxy)phenyl)hexahydropyrano[3,4-d]imidazol-2(3H)-one] yielded an IC50 of 10 to 30 µM. For `O=C1N(c2ccc(Cl)cc2)C2CCOC[C@@]2(c2cccc(OC(F)(F)F)c2)N1c1ccc(Cl)cc1` (stereo partly drawn) [Example 31-2, (3aS)-1,3-bis(4-chlorophenyl)-3a-(3-(trifluoromethoxy)phenyl)hexahydropyrano[3,4-d]imidazol-2(3H)-one], the IC50 was < 1 µM. Compound `Cc1ccc(N2C(=O)N(c3ccc(C)cc3)C3(COC3)[C@H]2c2cccc(C#N)c2)cc1` [Example 32-1, (R)-3-(6-oxo-5,7-di-p-tolyl-2-oxa-5,7-diazaspiro[3.4]octan-8-yl)benzonitrile] has an IC50 of 10 to 30 µM. `Cc1ccc(N2C(=O)N(c3ccc(C)cc3)C3(COC3)[C@@H]2c2cccc(C#N)c2)cc1` [Example 32-2, (S)-3-(6-oxo-5,7-di-p-tolyl-2-oxa-5,7-diazaspiro[3.4]octan-8-yl)benzonitrile] was tested, and the IC50 was < 1 µM. `CCC[C@]1(C)[C@@H](c2cccc(C#N)c2)N(c2ccc(Cl)cc2)C(=O)N1c1ccc(Cl)cc1` [Example 33-1, 3-((4R,5R)-1,3-bis(4-chlorophenyl)-5-methyl-2-oxo-5-propylimidazolidin-4-yl)benzonitrile] was tested, and the IC50 was < 1 µM. Compound `CCC[C@@]1(C)[C@H](c2cccc(C#N)c2)N(c2ccc(Cl)cc2)C(=O)N1c1ccc(Cl)cc1` [Example 33-2, 3-((4S,5S)-1,3-bis(4-chlorophenyl)-5-methyl-2-oxo-5-propylimidazolidin-4-yl)benzonitrile] has an IC50 of 1 to 10 µM. In the case of `CCC[C@]1(C)[C@H](c2cccc(C#N)c2)N(c2ccc(Cl)cc2)C(=O)N1c1ccc(Cl)cc1` [Example 33-3, 3-((4S,5R)-1,3-bis(4-chlorophenyl)-5-methyl-2-oxo-5-propylimidazolidin-4-yl)benzonitrile], the IC50 is reported as 1 to 10 µM. With `CCC[C@@]1(C)[C@@H](c2cccc(C#N)c2)N(c2ccc(Cl)cc2)C(=O)N1c1ccc(Cl)cc1` [Example 33-4, 3-((4R,5S)-1,3-bis(4-chlorophenyl)-5-methyl-2-oxo-5-propylimidazolidin-4-yl)benzonitrile] the IC50 was < 1 µM. For `CC[C@@]1(C)[C@H](c2cccc(C#N)c2)N(c2ccc(Cl)cc2)C(=O)N1c1ccc(Cl)cc1` [Example 34-1, 3-((4S,5S)-1,3-bis(4-chlorophenyl)-5-ethyl-5-methyl-2-oxoimidazolidin-4-yl)benzonitrile], the IC50 was < 1 µM.
